Source: article PMC11403612, “Preparation and Preclinical Characterization of a Simple Ester for Dual Exogenous Supply of Lactate and Beta-hydroxybutyrate” (Journal of Agricultural and Food Chemistry, 2024)

Assay: Short-term pharmacokinetics of LaKe in rats (BHB and lactate levels)
Type: in vivo, Sprague–Dawley rats
Details: 4.5 g/kg oral
Method: Male Sprague–Dawley rats (300–350g, Taconic, Ry, Denmark) were kept for acclimatization at a constant temperature of 23 °C with a 12 h light-dark cycle and with unlimited access to food and water. All animal handling was in accordance with national guidelines in Denmark and the guidelines from the Directive 2010/63/EU of the European Parliament on the protection of animals used for scientific purposes, and all experiments conformed to Danish Law (Act. No. 1306 of 23/11/2007). The experimental protocol was approved by the Danish Animal Expectorate (2018-15-0201-01475).
The rats were randomly selected to receive either LaKe (n = 8) or placebo (n = 8).
Rats were anesthetized in an induction chamber with 8% Sevoflurane (Sevorane, AbbVIE A/S, Copenhagen, Denmark) mixed with oxygen saturated atmospheric air (flow: 2.0 L/min). Upon achieved anesthesia, the rats were intubated and connected to a mechanical ventilator (Ugo Basile 7025 rodent ventilator, Comerio, Varese, Italy) with an adjusted flow of 1.0L/min with 3.5% Sevoflurane. Body temperature was kept at a constant of 37 ± 1 °C with a temperature probe (UNO, Zevenaar, Holland). A PTFE-coated flexible orogastric tube (Fuchigami, Japan) was placed, and the rat was left for stabilization for 15 min. […]
Short term pharmacokinetics of LaKe in rats – Detailed protocols for LC-MS/MS and FFA analyses BHB quantification by LC-MS/MS […]

In the case of CC(O)CCOC(=O)C(C)O (centres unmarked) [LaKe, 3-hydroxybutyl 2-hydroxypropanoate], the “BHB levels at 120 min” value is reported as “remained elevated” and the “lactate levels at 120 min” value is reported as “largely back at the baseline level”.
